Consider 22 molecules from US20240294526A1, “FUSED TRI-CYCLIC COMPOUND AS A PDE3/PDE4 DUAL INHIBITOR” (CHIA TAI TIANQING PHARMACEUTICAL GROUP CO., LTD., priority 2018, published 2024).

The conditions of data set [1]: reported; cited from earlier work.
The conditions of data set [2]: reported; cited from earlier work. The source holds these as a separate data set.
Data set [3] concerns the target recombinant human PDE4B (Homo sapiens (Human), UniProt Q07343). In words: In vitro inhibitory activity against PDE 4B enzyme (fluorescence polarization). In kind it is biochemical. To be noted: 1 μM cAMP. As to the method: (§1) Experimental objective: to determine the AMP/GMP expression based on fluorescence polarization, i.e., to trace binding of AMP/GMP to antibody so as to indicate enzyme activity.
Experimental buffer solution: 10 mM Tris-HCl (pH 7.5), 5 mM MgCl2, 0.01% Brij 35, 1 mM DTT, and 1% DMSO.
Enzyme: recombinant human PDE4B (Gene accession number: NM_002600; amino acid 305-end) was expressed by baculovirus in Sf9 insect cells using an N-terminal GST tag, with molecularweight being 78 kDa.
(§2) Enzyme substrate: 1 μM cAMP
(§3) Detection: Transcreener® AMP2/GMP2 antibody and AMP2/GMP2 AlexaFluor633 tracer.
(§4) • 1. The recombinant human PDE4B enzyme and enzyme substrate (1 μM cAMP) were each dissolved in newly prepared experimental buffer solution; • 2. The PDE4B enzyme buffer solution was transferred into reaction wells; • 3. The compound which was dissolved in 100% DMSO was added to the reaction wells containing PDE4B enzyme buffer solution by acoustic technique (echo 550; millilambda range) and the mixture was incubated for 10 minutes at room temperature; • 4. The enzyme substrate buffer solution was added to the above reaction wells to initiate reaction; • 5. The resulting mixture was incubated at room temperature for 1 hour; • 6. The detection mixture (Transcreener® AMP2/GMP2 antibody and AMP2/GMP2 AlexaFluor633 tracer) was added to stop the reaction, and the resulting mixture was incubated for 90 minutes while slowly mixing. The measurement range of fluorescence polarization was Ex/Em=620/688.
(§5) Data analysis: the fluorescence polarization signal was converted to nM based on AMP/GMP standard curve and the percentage enzyme activity relative to DMSO control calculated by Excel. GraphPad Prism was used for curve fitting (drawing medical icon).

The target of data set [4] is recombinant human PDE3A (Homo sapiens (Human), UniProt Q14432). In words: In vitro inhibitory activity against PDE 3A enzyme (fluorescence polarization). It counts as biochemical. Particulars: 1 μM cAMP. As for the experimental part: as §1
Experimental buffer solution: 10 mM Tris-HCl (pH 7.5), 5 mM MgCl2, 0.01% Brij 35, 1 mM Dithiothreitol (DTT), and 1% DMSO.
Enzyme: recombinant human PDE3A (Gene accession number: NM_000921; amino acid 669-end) was expressed by baculovirus in Sf9 insect cells using an N-terminal GST tag, with molecularweight being 84 kDa.
as §2, §3
as §4, with “PDE3A” for “PDE4B”, “newly-prepared” for “newly prepared”
as §5

Data set [5] in a line: Pharmacokinetic experiment in beagle dogs. It counts as in vivo. As to the method: In this study, male beagle dogs were selected as test animals, and liquid chromatography-tandem mass spectrometry (LC-MS/MS) method was used for quantitatively measuring the drug concentration in plasma of beagle dogs at different time points after intravenous injection or oral administration of compound WX036 so as to evaluate the pharmacokinetic characteristics of the compound WX036 in beagle dogs.
The clear solution of compound WX036 was injected into two 10-12 kg beagle dogs via the cephalic vein or saphenous vein, and the clear solution of test compound was administered intragastrically to two 10-12 kg beagle dogs (overnight fasted). The animals were all subjected to approximately 500 μL of blood collection each time from peripheral veins at 0.0333, 0.0833, 0.25, 0.5, 1, 2, 4, 6, 8, and 24 hours post-dose, and the blood was transferred into commercial centrifuge tubes containing 0.85-1.15 mg of K2 EDTA*2H2O anticoagulant, and plasma was taken by centrifugation at 3000 g for 10 minutes at 4° C. The plasma concentration was measured by LC-MS/MS method, and the relevant pharmacokinetic parameters were calculated by WinNonlin™ Version 6.3 (Pharsight, Mountain View, CA) pharmacokinetic software using non-compartmental model linear logarithmic trapezoid method.

Chain of recombinant human PDE4B (Q07343 305-736 limits assumed): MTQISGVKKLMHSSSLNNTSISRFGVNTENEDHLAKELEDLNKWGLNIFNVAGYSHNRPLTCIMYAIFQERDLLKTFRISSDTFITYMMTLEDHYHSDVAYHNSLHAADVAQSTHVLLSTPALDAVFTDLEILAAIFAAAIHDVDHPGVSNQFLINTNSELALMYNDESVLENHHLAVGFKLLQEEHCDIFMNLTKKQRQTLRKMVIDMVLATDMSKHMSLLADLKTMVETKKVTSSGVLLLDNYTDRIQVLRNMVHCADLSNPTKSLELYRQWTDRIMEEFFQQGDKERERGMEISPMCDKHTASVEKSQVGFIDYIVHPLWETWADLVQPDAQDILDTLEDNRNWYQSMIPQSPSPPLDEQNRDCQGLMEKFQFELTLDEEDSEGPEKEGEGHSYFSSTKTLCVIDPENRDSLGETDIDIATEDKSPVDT
Chain of recombinant human PDE3A (Q14432 669-1141 limits assumed): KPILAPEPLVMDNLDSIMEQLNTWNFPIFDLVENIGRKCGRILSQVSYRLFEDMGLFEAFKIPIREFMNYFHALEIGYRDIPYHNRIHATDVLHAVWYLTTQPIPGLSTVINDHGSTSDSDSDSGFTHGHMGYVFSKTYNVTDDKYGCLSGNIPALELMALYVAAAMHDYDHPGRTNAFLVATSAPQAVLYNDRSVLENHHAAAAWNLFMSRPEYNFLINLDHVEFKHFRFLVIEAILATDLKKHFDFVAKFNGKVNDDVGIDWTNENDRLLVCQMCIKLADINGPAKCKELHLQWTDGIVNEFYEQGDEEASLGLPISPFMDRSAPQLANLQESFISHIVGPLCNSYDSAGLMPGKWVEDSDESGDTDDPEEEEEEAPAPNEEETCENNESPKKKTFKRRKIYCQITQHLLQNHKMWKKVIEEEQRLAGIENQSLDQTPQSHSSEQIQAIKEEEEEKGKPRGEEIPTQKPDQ

With `COc1cc2c(cc1OC)-c1cc(Oc3c(C(C)C)cccc3C(C)C)nc(=O)n1CC2` [RPL565], the solubility entry in data set [1] is listed as “poor”. Moreover, the plasma clearance result in data set [2] is listed as “high”.
The term IC50 denotes the concentration at which inhibition is half-maximal. As for `CCOc1cc2c(cc1OC)-c1c/c(=N\c3c(C)cc(C)cc3C)n(CCNC(=O)c3ncc[nH]3)c(=O)n1CC2` [WX017], in data set [3], the IC50 was 0.43 nM.
As to `CCOc1cc2c(cc1OC)-c1c/c(=N\c3c(C)cc(C)cc3C)n(CCNC(=O)c3cnc[nH]3)c(=O)n1CCC2` [WX049], the values for the IC50 in data set [4] and in data set [3] were 0.3 nM and 0.05 nM, respectively.
The like results for `CCOc1cc2c(cc1OC)-c1c/c(=N\c3c(C)cc(C)cc3C)n(CCNC(=O)c3nnc[nH]3)c(=O)n1CCC2` [WX047] were, in that order, 0.1 nM and 0.16 nM.
Take `CCOc1cc2c(cc1OC)-c1c/c(=N\c3c(C)cc(C)cc3C)n(CCNC(=O)c3cnc[nH]3)c(=O)n1CC2` [WX021]: the IC50 in data set [3] was found to be 1.1 nM.
On to `CCOc1cc2c(cc1OC)-c1c/c(=N\c3c(C)cc(C)cc3C)n(CCNC(=O)c3cnn[nH]3)c(=O)n1CCC2` [WX048], for which the IC50 in data set [4] worked out at 0.03 nM; in data set [3] it was 0.27 nM.
As to `CCOc1cc2c(cc1OC)-c1c/c(=N\c3c(C)cc(C)cc3C)n(CCNC(=O)c3c(O)nnn3C)c(=O)n1CC2` [WX036], the “Area under plasma concentration-time curve (0-inf)” value in data set [5] (intravenous injection 0.5 mg/kg) turned out to be 210 nM·h. Moreover, in data set [5] (oral administration 3 mg/kg), the “Area under plasma concentration-time curve (0-inf)” value turned out to be 123 nM·h, the Peak concentration is 59.4 nM and the Time to peak amounted to 0.6 h.
Consider `CCOc1cc2c(cc1OC)-c1c/c(=N\c3c(C)cc(C)cc3C)n(CCNC(=O)c3[nH]ncc3OC)c(=O)n1CC2` [WX037], for which the IC50 in data set [3] turned out to be 1.7 nM.
With `CCOc1cc2c(cc1OC)-c1c/c(=N\c3c(C)cc(C)cc3C)n(CCNC(=O)c3cnn[nH]3)c(=O)n1CC2` [WX016], the IC50 in data set [3] was 0.24 nM.
In the case of `CCOc1cc2c(cc1OC)-c1c/c(=N\c3c(C)cc(C)cc3C)n(CCC(=O)Nc3ncco3)c(=O)n1CC2` [WX056], in data set [3], the IC50 stood at 9.1 nM.
Take `CCOc1cc2c(cc1OC)-c1c/c(=N\c3c(C)cc(C)cc3C)n(CCNC(=O)c3[nH]nnc3OC)c(=O)n1CC2` [WX026]: the IC50 in data set [3] was 2.5 nM.
For the molecule `CCOc1cc2c(cc1OC)-c1c/c(=N\c3c(C)cc(C)cc3C)n(CCNC(=O)c3ccn[nH]3)c(=O)n1CCC2` [WX050], the 50% inhibitory concentration (IC50) in data set [4] came to 1.1 nM; in data set [3] it was 0.24 nM.
Turning to `CCOc1cc2c(cc1OC)-c1c/c(=N\c3c(C)cc(C)cc3C)n(CCNC(=O)c3[nH]nnc3N)c(=O)n1CC2` [WX025], the IC50 in data set [3] worked out at 0.44 nM.
Take `CCOc1cc2c(cc1OC)-c1c/c(=N\c3c(C)cc(C)cc3C)n(CCNC(=O)c3cnn[nH]3)c(=O)n1CCO2` [WX053]: the half-inhibitory concentration (IC50) in data set [4] is 0.57 nM; in data set [3], 1.9 nM.
Take `CCOc1cc2c(cc1OC)-c1c/c(=N\c3c(C)cc(C)cc3C)n(CCNC(=O)c3ccn[nH]3)c(=O)n1CC2` [WX018]: in data set [3], the half-maximal inhibitory concentration (IC50) was 0.05 nM.
In the case of `CCOc1cc2c(cc1OC)-c1c/c(=N\c3c(C)cc(C)cc3C)n(CCNC(=O)c3ncco3)c(=O)n1CC2` [WX019], the IC50 in data set [3] was 0.48 nM.
For `CCOc1cc2c(cc1OC)-c1c/c(=N\c3c(C)cc(C)cc3C)n(CCNc3nc[nH]n3)c(=O)n1CCC2` [WX004], the half-inhibitory concentration (IC50) worked out at 0.63 nM in data set [4] and 0.12 nM in data set [3].
In the case of `COc1cc2c(cc1OC)-c1c/c(=N\c3c(C)cc(C)cc3C)n(CCNC(N)=O)c(=O)n1CC2` [RPL554], the solubility result in data set [1] is “poor”. Moreover, the plasma clearance entry in data set [2] was “high”.
For the molecule `CCOc1cc2c(cc1OC)-c1c/c(=N\c3c(C)cc(C)cc3C)n(CCC(=O)Nc3cn[nH]c3)c(=O)n1CC2` [WX057], the IC50 in data set [3] was found to be 5.4 nM.
Consider `CCOc1cc2c(cc1OC)-c1c/c(=N\c3c(C)cc(C)cc3C)n(CCC(=O)Nc3cnn[nH]3)c(=O)n1CC2` [WX055], for which the IC50 in data set [3] is 2.1 nM.
Regarding `CCOc1cc2c(cc1OC)-c1c/c(=N\c3c(C)cc(C)cc3C)n(CCNC(=O)c3ccn[nH]3)c(=O)n1CCO2` [WX052], the values for the IC50 in data set [4] and in data set [3] were 0.5 nM and 0.18 nM, respectively.
For `CCOc1cc2c(cc1OC)-c1c/c(=N\c3c(C)cc(C)cc3C)n(CCNC(=O)c3ncon3)c(=O)n1CC2` [WX020], in data set [3], the IC50 turned out to be 0.47 nM.
